Laboratory results: US20060134738A1, “Gene expression inducing fusion protein and method for controlling gene expression Induction” (priority 2003, published 2006)

Tests used:
Type in all cases: cell-based
[1] = tested on: farnesylation of R17-4G-CVLS; assay: LucF/LucR induction in HeLa clone with integrated R17-4G-CVLS, prenyltransferase inhibitors (FIG. 2A, 2B); settings: for induction (quotient of LucF and LucR relative to the DMSO control): reporters pCRL138 and pCRL138-R17, FIG. 2A
Description: The nucleic acid encoding the R17-4G-CVLS protein is integrated into the genome of HeLa cells. The reporter plasmids pCRL138 and pCRL138-R17 are transiently transfected into this clone. The products that act on farnesylation of R17-4G-CVLS are then sought.
DMSO is the solvent in which the products (FTI 277 and GGTI 298) that are added to the culture medium are dissolved, and therefore represents an induction control.
The white rectangles represent the RNA which carries the R17 protein recognition sequence. The black rectangles represent the activities obtained under the same conditions with an RNA sequence that is similar but no longer carries the R17 recognition; it is therefore the negative control for the first construct.
The induction is represented by the quotient of the LucF and LucR values measured directly in the presence of an agent (FTI 277 or GGTI 298), relative to the DMSO control.

[2] = tested on: proteins containing CVLS, CVLL or SVLS boxes in HeLa cells; assay: Subcellular localization of fusion proteins by fluorescence microscopy (FIGS. 6A and B); settings: treatment 8 hours, immunofluorescence with anti-HA antibody
From the text: Moreover, the subcellular localization of proteins containing CVLS, CVLL or SVLS boxes was verified.
To do this, these boxes were fused with the YFP protein (yellow fluorescent protein), and all the fusion proteins were cloned with an HA sequence in the N-terminal position. The constructs were transiently transfected into HeLa cells, and the localization of the fusion proteins was followed by fluorescence microscopy after immunofluorescence with an anti-HA antibody (FIGS. 6A and B, in color).

[3] = tested on: R17-4G-CAAX constructs (CVLS, CVLL, SVLS) in HeLa cells; assay: Translation activation in HeLa clones with integrated reporter, transiently transfected with R17-4G-CAAX constructs (FIG. 5); settings: for activation of translation relative to the DMSO controls, R17-4G-SVLS: construct neither farnesylated nor geranylated; for activation of translation relative to the DMSO controls, R17-4G-CVLS: construct with farnesylations box; for activation of translation relative to the DMSO controls, R17-4G-CVLL: construct with geranylations box
Description: The pCRL138 or pCRL138-R17 reporter sequences are integrated into the genome of HeLa cells, and various R17-4G-CAAX constructs—where CAAX can be farnesylated, “CVLS”, or geranylgeranylated, “CVLL”, or no longer undergo any post-translational modifications of this type, “SVLS”,—are transiently transfected into these two clones.
After transfection, the cells are treated with FTI 277 (farnesyltransferase inhibitor) or GGTI 298 (geranyltransferase inhibitor).

[4] = tested on: HMGCoA-reductase; assay: LucF/LucR ratio in HeLa cells stably transfected with R17-4G-CVLS, screening of HMGCoA-reductase inhibitors (FIG. 3); settings: for HMGCoA-reductase inhibiting activity (LucF/LucR ratio relative to a DMSO control): HeLa stably R17-4G-CVLS, reporters pCRL138 and pCRL138-R17, FIG. 3; for effect of mevalonate on the inhibitory activity (LucF/LucR ratio): in the presence of mevalonate, FIG. 3
From the text: HMGCoA-reductase, which synthesizes melavonate, is involved in isoprenylation, a post-translational modification of proteins such as 4G-CVLS.
In FIG. 3, the cells used during these tests are HeLa cells stably transfected with the plasmid encoding the R17-4G-CVLS fusion protein, and transiently transfected with the bicistronic reporter plasmids pCRL138 and pCRL138-R17.
The results are given in the form of the ratio of LucF/LucR activity in the presence of various pharmacological agents in the culture medium, relative to a DMSO control.
The model used also made it possible to screen potential HMGCoA-reductase inhibiting agents.

[5] = tested on: Farnesyl Pyrophosphate Synthase, also called FPP-synthase; assay: LucF/LucR ratio in HeLa cells stably transfected with R17-4G-CVLS, FPP-synthase inhibitors (FIG. 4); settings: HeLa stably R17-4G-CVLS
From the text: This enzyme is required for the biosynthesis of farnesyl pyrophosphates.
In these tests represented in FIG. 4, the same cellular model as in b), stably transfected with R17-4G-CVLS, is used.

[6] = tested on: p27Kip1 protein expression in CHO (Chinese hamster ovary) cells; assay: p27 expression by Western blotting in cotransfected CHO cells (FIG. 7); settings: 8 hours
From the text: The reporter plasmid constructed in the context of this example makes it possible to transcribe, in mammalian cells in culture ex vivo, a bicistronic RNA encoding a truncated H2-Kk protein (mouse MHC class I molecule) as a marker for selection of the transfected cells, and encoding the p27Kip1 protein which is a cell cycle-inhibiting protein. The bicistronic RNA also contains, in the intercistron space, a binding site for the R17 bacteriophage capsid protein. This bicistronic RNA is very diagrammatically represented in FIG. 7.
The effector plasmid used is the one for expressing the R17-4G-CVLS fusion protein.
CHO (Chinese hamster ovary) cells are transiently transfected with cationic liposomes using 10 pmol of reporter plasmids and 5 pmol of activator plasmids per 1 million cells. Twelve hours after transfection, the cells are treated for 8 hours with the farnesyltransferase inhibitor (Cys-Val-3(2-naphthyl)Ala-Met; Sigma C4433) at a final concentration of 1 μM in the culture medium. […]
The expression of the p27 protein (ap27 line) is examined by Western blotting with a monoclonal antibody (Ref. 610241, BD Bioscience Pharmingen). The expression of the R17-4G-CVLS fusion protein (aHA line) is detected by Western blotting using a monoclonal antibody against the HA peptide (Eurogentec) located at the NH2-terminal end of the R17-4G-CVLS protein. […]

[7] = tested on: translation of the second cistron (LucF/LucR ratio), SKHep-1 human hepatoma cells; assay: LucF/LucR translation induction in transiently transfected SKHep-1 cells (FIG. 1); settings: inhibitor 15 μM, 1 to 8 hours
From the text: 1. “Reporter” plasmids that make it possible to transcribe, in the cells, a bicistronic RNA encoding the LucR (Renilla luciferase) reporter protein in the first cistron and the LucF (firefly luciferase) reporter protein in the second cistron. The plasmids pCRL30-R17 or pCRL138-R17 also contain, in the intercistron space of the mRNA, a binding site for the capsid protein of the R17 bacteriophage (plasmid).
2. Effector plasmids which will be able to express, in the cells: • a fusion protein consisting of the R17 phage capsid protein fused with the C-terminal region of the eIF4G translation initiation factor, for the plasmid pCI R17-4G, • a fusion protein consisting of the R17 phage capsid protein fused with the C-terminal region of the eIF4G translation initiation factor and a farnesylation protein domain (of protein sequence CVLS), for the plasmid pCI R17-4G-CVLS.
The procedure is carried out in the following way. SKHep-1 human hepatoma cells are transiently transfected with cationic liposomes using 10 pmol of reporter plasmids and 5 pmol of activator plasmids per 1 million cells. […]
After lysis of the cells, the LucR and LucF activities are assayed using the “Dual-Luciferase (TM) reporter system” kit (Promega E1980) on a Berthold LB96B luminescence device. […]

Row | induction (quotient of LucF and LucR relative to the DMSO control) ([1]; HeLa, integrated R17-4G-CVLS) | Compound | activation of translation relative to the DMSO controls, R17-4G-SVLS [3] | activation of translation relative to the DMSO controls, R17-4G-CVLS [3] | activation of translation relative to the DMSO controls, R17-4G-CVLL [3] | HMGCoA-reductase inhibiting activity (LucF/LucR ratio relative to a DMSO control) [4] | effect of mevalonate on the inhibitory activity (LucF/LucR ratio) [4] | other results
1 | has an inducer effect | COC(=O)[C@H](CCSC)NC(=O)c1ccc(NC[C@@H](N)CS)cc1-c1ccccc1 [FTI 277] | neither of the two molecules is capable of activation | capable of activating translation | only GGTI 298 is capable of activating translation | – | – | treatment time at which the maximum activation effect is obtained ([1]; HeLa, integrated R17-4G-CVLS, kinetics FIG. 2A): 8 h; reversibility of the activation effect (LucF/LucR activation ratio after removal of the product) ([1]; cells treated for 8 h with 1 μM, then product removed, FIG. 2B): reversible; relocalization of fusion proteins to the cytoplasm [2]: relocalizes only the YFP-CVLS and R17-4G-CVLS proteins to the cytoplasm
2 | has no activation effect | COC(=O)[C@H](CC(C)C)NC(=O)c1ccc(NC[C@@H](N)CS)cc1-c1cccc2ccccc12 [GGTI 298] | neither of the two molecules is capable of activation | only FTI 277 is capable of activating translation | capable of activating translation | – | – | –
3 | – | c1ccc(Cc2ccc(OCCN3CCCC3)cc2)cc1 [PBPE] | – | – | – | found to be an inhibitor of HMGCOA-reductase | compensated for by the presence of mevalonate | –
4 | – | CC/C(=C(\c1ccccc1)c1ccc(OCCN(C)C)cc1)c1ccccc1 [tamoxifen] | – | – | – | inhibits this enzyme even at low concentrations | reversed or compensated for by mevalonate | farnesylation / FPP-synthase inhibition (LucF/LucR ratio) [5]: is also an FPP-synthase inhibitor
5 | – | Cys-Val-3(2-naphthyl)Ala-Met [farnesyltransferase inhibitor] | – | – | – | – | – | amount of p27 (Western blotting) ([6]; CHO cotransfected with pR17-4G-CVLS and pK-R17-p27, inhibitor 1 μM): An increase in the amount of p27; amount of fusion protein produced (Western blotting, anti-HA) ([6]; CHO cotransfected, with or without inhibitor 1 μM): identical with or without treatment with the inhibitor; level of translation induced by the expression of the R17-4G fusion protein under inhibitor treatment (LucF/LucR ratio) ([7]; SKHep-1, effector pCI R17-4G): not modulated; increase in translation induced by the R17-4G-CAAX inducer fusion protein under inhibitor treatment (LucF/LucR ratio) ([7]; SKHep-1, effector pCI R17-4G-CVLS): dependent on the time of treatment
